Test results: article PMC2690642 (Journal of neurochemistry, 2008)

Key:
[1] = target: T1, NR2B-R (regulatory domain of NMDA receptor NR2B subunit) (Rattus norvegicus, UniProt Q00960); assay: [14C]spermine filter binding to purified NR2B-R; settings: for [14C]Spermine bound to NR2B-R in presence of addition, %: 40 µM [14C]spermine, % of binding with no addition; for Effect of aminoglycoside on spermine binding to NR2B-R: 20 µM [14C]spermine, aminoglycosides 75 to 300 µM (Fig. 10)
[2] = target: T1, NR2B-R (regulatory domain of NMDA receptor NR2B subunit); assay: [3H]ifenprodil filter binding to purified NR2B-R; settings: for [3H]Ifenprodil bound to NR2B-R in presence of addition, %: 0.4 µM [3H]ifenprodil, % of binding with no addition
[3] = target: T2, NR1-R (regulatory domain of NMDA receptor NR1 subunit) (Rattus norvegicus, UniProt P35439); assay: [3H]ifenprodil filter binding to purified NR1-R
[4] = target: T3, NR2A-R (regulatory domain of NMDA receptor NR2A subunit) (Rattus norvegicus, UniProt Q00959); assay: [3H]ifenprodil filter binding to purified NR2A-R; settings: 0.1 to 0.8 µM [3H]ifenprodil
T3 sequence (Q00959 23-389): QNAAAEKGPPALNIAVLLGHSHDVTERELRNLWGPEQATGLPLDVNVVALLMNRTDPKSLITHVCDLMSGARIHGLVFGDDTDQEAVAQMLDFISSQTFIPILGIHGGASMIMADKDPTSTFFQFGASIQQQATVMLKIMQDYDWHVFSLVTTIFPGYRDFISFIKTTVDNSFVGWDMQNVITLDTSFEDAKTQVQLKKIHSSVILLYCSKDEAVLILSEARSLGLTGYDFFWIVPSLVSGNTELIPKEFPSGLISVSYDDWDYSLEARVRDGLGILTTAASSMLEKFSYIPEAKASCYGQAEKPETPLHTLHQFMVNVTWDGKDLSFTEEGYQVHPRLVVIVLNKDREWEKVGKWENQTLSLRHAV

NR2A-R = NR2A-R (Rattus norvegicus, UniProt Q00959); assay: Circular dichroism; assay type: binding
NR2A-R, sequence (Q00959 23-389): as above

NR1/NR2B receptors [5] = settings: read-out: IC50 for ifenprodil inhibition at intact, functional NR1/NR2B receptors; pH 7.6; ref Williams 1993; cited from earlier work
[6] = target: T3, NR2A-R (regulatory domain of NMDA receptor NR2A subunit); assay: [14C]spermine filter binding to purified NR2A-R; settings: for Effect of aminoglycoside on spermine binding to NR2A-R: 20 µM [14C]spermine, aminoglycosides 75 to 300 µM (Fig. 10)
[7] = target: T2, NR1-R (regulatory domain of NMDA receptor NR1 subunit); assay: [14C]spermine filter binding to purified NR1-R; settings: for Effect of aminoglycoside on spermine binding to NR1-R: 20 µM [14C]spermine, aminoglycosides 75 to 300 µM (Fig. 10)
NR1-R = NR1-R (Rattus norvegicus, UniProt P35439); assay: Circular dichroism; assay type: binding
NR2B-R = NR2B-R (Rattus norvegicus, UniProt P35439+Q00960); assay: Circular dichroism; assay type: binding
NR2B-R, sequence (Q00960 27-390, one chain of several): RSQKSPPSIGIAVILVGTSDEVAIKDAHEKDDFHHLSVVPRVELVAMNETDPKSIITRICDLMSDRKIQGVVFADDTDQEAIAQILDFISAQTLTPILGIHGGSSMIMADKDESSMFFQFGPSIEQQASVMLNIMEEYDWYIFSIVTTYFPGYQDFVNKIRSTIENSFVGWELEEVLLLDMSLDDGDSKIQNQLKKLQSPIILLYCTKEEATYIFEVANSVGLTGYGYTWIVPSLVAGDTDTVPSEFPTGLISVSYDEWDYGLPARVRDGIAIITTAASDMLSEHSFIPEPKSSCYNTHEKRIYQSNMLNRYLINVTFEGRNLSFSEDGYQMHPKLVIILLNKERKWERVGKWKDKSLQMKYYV

NR1-R (E181Q) [8] = target: T4, NR1-R (E181Q) (Rattus norvegicus, UniProt P35439, E181Q)
ovalbumin = ovalbumin (Gallus gallus, UniProt P01012); settings: control, unrelated protein
ovalbumin, sequence (P01012 whole entry, species assumed): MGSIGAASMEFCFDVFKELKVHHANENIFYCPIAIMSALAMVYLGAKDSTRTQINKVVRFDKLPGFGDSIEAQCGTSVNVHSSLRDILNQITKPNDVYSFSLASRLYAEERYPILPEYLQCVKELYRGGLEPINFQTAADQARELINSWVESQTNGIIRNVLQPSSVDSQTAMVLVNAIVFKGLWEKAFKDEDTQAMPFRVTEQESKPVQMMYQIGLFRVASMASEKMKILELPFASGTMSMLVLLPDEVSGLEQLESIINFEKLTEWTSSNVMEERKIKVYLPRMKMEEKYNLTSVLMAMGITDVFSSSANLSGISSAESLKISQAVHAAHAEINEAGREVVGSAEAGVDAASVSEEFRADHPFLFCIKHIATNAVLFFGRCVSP

NR1-R (E181Q) [9] = target: T4, NR1-R (E181Q); assay: biochemical
NR1/NR2A receptors = NR1/NR2A receptors (Rattus norvegicus, UniProt P35439+Q00959); assay: Voltage clamp recording in Xenopus oocytes expressing NR1/NR2A
NR1/NR2A receptors, sequence (Q00959 23-1464, other chains not shown): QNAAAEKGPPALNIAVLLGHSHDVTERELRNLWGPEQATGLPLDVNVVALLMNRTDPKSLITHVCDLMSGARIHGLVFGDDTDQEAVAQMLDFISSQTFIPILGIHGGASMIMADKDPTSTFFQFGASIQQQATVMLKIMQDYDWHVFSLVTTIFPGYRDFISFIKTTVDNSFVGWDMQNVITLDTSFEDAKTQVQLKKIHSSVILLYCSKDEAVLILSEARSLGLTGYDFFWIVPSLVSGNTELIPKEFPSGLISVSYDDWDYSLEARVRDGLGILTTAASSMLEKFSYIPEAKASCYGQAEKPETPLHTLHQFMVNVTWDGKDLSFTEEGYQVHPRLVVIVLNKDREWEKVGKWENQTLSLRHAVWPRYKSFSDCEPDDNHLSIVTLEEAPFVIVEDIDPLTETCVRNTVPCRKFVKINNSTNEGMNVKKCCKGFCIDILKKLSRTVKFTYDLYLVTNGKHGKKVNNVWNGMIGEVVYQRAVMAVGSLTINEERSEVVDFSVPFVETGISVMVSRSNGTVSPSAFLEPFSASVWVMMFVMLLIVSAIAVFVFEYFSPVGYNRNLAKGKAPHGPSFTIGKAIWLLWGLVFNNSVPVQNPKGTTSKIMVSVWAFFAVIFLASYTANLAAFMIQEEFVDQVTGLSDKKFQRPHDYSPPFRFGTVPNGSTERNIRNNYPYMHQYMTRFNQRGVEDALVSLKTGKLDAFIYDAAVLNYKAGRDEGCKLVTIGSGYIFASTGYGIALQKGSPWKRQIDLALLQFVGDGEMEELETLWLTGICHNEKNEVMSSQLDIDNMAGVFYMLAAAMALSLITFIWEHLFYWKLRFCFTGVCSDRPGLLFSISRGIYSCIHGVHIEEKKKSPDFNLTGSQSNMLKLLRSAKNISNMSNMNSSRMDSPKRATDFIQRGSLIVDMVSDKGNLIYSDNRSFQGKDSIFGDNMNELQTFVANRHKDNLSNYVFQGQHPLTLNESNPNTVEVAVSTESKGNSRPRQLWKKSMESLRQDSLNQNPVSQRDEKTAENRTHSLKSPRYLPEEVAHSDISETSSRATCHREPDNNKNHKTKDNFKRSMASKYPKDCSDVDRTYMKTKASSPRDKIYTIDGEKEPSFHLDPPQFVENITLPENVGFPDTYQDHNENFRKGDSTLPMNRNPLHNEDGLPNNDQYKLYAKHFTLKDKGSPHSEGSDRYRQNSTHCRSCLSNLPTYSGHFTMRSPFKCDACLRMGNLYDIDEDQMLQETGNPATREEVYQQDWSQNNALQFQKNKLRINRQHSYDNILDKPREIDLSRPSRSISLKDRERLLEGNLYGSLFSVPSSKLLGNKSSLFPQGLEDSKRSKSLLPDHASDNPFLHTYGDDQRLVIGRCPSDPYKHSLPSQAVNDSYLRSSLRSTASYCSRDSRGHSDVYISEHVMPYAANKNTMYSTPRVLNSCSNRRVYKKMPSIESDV

NR1/NR2B receptors [10] = target: NR1/NR2B receptors (Rattus norvegicus, UniProt P35439+Q00960); assay: Voltage clamp recording in Xenopus oocytes expressing NR1/NR2B
NR1/NR2B receptors (Rattus norvegicus, UniProt P35439+Q00960), sequence (Q00960 27-1482, other chains not shown): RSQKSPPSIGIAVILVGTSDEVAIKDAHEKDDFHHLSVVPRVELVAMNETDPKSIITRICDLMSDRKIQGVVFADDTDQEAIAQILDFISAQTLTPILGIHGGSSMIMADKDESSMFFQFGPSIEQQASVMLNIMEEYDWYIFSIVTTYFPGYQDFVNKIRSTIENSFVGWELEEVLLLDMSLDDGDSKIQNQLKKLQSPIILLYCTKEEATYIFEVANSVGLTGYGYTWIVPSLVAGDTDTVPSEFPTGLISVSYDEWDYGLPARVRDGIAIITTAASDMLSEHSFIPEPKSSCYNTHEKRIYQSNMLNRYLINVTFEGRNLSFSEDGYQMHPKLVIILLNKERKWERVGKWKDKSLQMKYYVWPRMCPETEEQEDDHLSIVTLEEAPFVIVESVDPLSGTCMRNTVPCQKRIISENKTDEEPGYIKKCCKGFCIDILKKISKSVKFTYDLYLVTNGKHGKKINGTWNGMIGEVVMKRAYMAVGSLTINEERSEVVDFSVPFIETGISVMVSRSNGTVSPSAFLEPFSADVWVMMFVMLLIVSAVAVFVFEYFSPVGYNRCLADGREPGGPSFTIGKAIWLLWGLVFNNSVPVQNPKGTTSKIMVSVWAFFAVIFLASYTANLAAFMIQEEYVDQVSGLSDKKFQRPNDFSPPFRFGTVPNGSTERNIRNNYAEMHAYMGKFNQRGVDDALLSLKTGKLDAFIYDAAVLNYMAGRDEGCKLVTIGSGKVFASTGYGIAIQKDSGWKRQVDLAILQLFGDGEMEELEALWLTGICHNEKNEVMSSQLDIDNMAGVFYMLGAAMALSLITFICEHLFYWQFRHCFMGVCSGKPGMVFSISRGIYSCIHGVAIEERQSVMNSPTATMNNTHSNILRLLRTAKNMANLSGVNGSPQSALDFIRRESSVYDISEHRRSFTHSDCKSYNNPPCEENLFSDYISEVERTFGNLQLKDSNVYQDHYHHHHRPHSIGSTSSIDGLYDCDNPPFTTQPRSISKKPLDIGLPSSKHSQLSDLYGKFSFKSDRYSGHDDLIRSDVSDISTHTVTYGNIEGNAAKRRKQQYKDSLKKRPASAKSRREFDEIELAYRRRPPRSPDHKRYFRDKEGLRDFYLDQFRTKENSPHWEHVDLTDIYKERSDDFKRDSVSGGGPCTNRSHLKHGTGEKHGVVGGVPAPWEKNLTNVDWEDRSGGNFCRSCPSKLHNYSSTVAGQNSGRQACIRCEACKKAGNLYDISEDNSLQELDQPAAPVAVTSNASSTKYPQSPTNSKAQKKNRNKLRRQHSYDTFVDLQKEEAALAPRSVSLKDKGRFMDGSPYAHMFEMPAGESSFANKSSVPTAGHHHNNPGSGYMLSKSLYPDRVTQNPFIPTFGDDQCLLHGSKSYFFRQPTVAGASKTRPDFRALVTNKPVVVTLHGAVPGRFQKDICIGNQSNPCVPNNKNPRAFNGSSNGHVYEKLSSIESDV

T1 sequence (Q00960 27-390): as the sequence (Q00960 27-390, one chain of several) above

Molecule: N[C@@H](CCC(=O)O)C(=O)O [Glutamate, glutamate]
- [14C]Spermine bound to NR2B-R in presence of addition, % [1]: 102%
- [3H]Ifenprodil bound to NR2B-R in presence of addition, % [2]: 103%

Molecule: NCC(=O)O [Glycine, glycine]
- [3H]Ifenprodil bound to NR2B-R in presence of addition, % [2]: 102%

Molecule: NCCCCNCCCN [Spermidine, spermidine]
- [14C]Spermine bound to NR2B-R in presence of addition, % [1]: 6%
- [3H]Ifenprodil bound to NR2B-R in presence of addition, % [2]: 98%

Molecule: CC(C(O)c1ccc(O)cc1)N1CCC(Cc2ccccc2)CC1 (stereo not shown) [ifenprodil]
- [14C]Spermine bound to NR2B-R in presence of addition, % [1]: 108%
- Bmax of ifenprodil binding, NR1-R [3]: 5.6 nmol/mg R domain protein
- Bmax of ifenprodil binding, NR1-R, equivalent [3]: 0.24 mol/mol R domain protein
- Hill coefficient for binding of ifenprodil to NR1-R [3]: ~1.0
- Specific binding of [3H]ifenprodil to NR2A-R [4]: no specific binding
- Bmax of ifenprodil binding, NR2B-R [2]: 5.2 nmol/mg R domain protein
- Bmax of ifenprodil binding, NR2B-R, equivalent [2]: 0.21 mol/mol R domain protein
- Hill coefficient for binding of ifenprodil to NR2B-R [2]: ~1.0
- [3H]Ifenprodil bound to NR2B-R in presence of addition, % [2]: 15%
- Change in the CD spectra of NR2A-R (NR2A-R; 2 µM ifenprodil): no change
- IC50 (NR1/NR2B receptors [5]): 0.34 µM

Molecule: NC[C@@H]1O[C@H](O[C@H]2[C@@H](O)[C@H](O[C@@H]3[C@@H](O)[C@H](N)C[C@H](N)[C@H]3O[C@H]3O[C@H](CN)[C@@H](O)[C@H](O)[C@H]3N)O[C@@H]2CO)[C@H](N)[C@@H](O)[C@@H]1O [neomycin B]
- Effect of aminoglycoside on spermine binding to NR2A-R [6]: inhibited
- Effect of aminoglycoside on spermine binding to NR2B-R [1]: inhibited
- Effect of aminoglycoside on spermine binding to NR1-R [7]: inhibited

Molecule: NC[C@@H]1O[C@H](O[C@H]2[C@@H](O)[C@H](O[C@@H]3[C@@H](O)[C@H](N)C[C@H](N)[C@H]3O[C@H]3O[C@H](CO)[C@@H](O)[C@H](O)[C@H]3N)O[C@@H]2CO)[C@H](N)[C@@H](O)[C@@H]1O [paromomycin]
- Effect of aminoglycoside on spermine binding to NR2A-R [6]: inhibited
- Effect of aminoglycoside on spermine binding to NR2B-R [1]: inhibited
- Effect of aminoglycoside on spermine binding to NR1-R [7]: inhibited

Molecule: NCCCNCCCCNCCCN [spermine]
- Bmax of spermine binding, NR2A-R, equivalent [6]: 0.29 mol/mol R domain
- Hill coefficient for spermine binding to NR2A-R [6]: close to unity
- Kd [6]: 140 µM
- Bmax of spermine binding, NR2A-R ([6]; Scatchard plot): 6.9 nmol/mg R domain protein
- Affinity for spermine lower at NR2A R domain compared to NR2B R domain ([6]; ratio of Kd): 4 fold
- Bmax of spermine binding, NR2B-R, equivalent [1]: 0.32 mol/mol R domain
- Hill coefficient for spermine binding to NR2B-R [1]: close to unity
- [14C]Spermine bound to NR2B-R in presence of addition, % [1]: 7%
- Kd ([1]; Kd of spermine at NR2B-R calculated from k1 and k−1, from rate constants): 25.9 µM
- Bmax of spermine binding, NR2B-R ([1]; Scatchard plot): 7.3 nmol/mg R domain protein
- Dissociation rate constant k−1 of [14C]spermine at NR2B-R ([1]; after addition of nonlabeled 3 mM spermine): 0.22 min⁻¹
- Association rate constant k1 of [14C]spermine at NR2B-R ([1]; average at 12.5, 25 and 50 µM [14C]spermine): 8,500 M^−1·min^−1
- [3H]Ifenprodil bound to NR2B-R in presence of addition, % [2]: 99%
- Kd (NR1-R): 20 µM
- Kd (NR2A-R): 133 µM
- Kd (NR2B-R): 35 µM
- Binding of spermine to E181Q mutant compared to wild-type NR1-R (NR1-R (E181Q) [8]): reduced
- Binding of spermine to ovalbumin (ovalbumin): little binding
- Kd (NR1-R (E181Q) [9]): 74 µM
- Bmax of spermine binding, NR1-R, equivalent [7]: 0.24 mol/mol R domain
- Hill coefficient for spermine binding to NR1-R [7]: close to unity
- Kd [7]: 19 µM
- Bmax of spermine binding, NR1-R ([7]; Scatchard plot): 6.3 nmol/mg R domain protein
- EC50 (NR1/NR2A receptors): 278 µM
- Hill coefficient for spermine at NR1/NR2A (NR1/NR2A receptors; oocytes, −20 mV): 1.17
- EC50 (NR1/NR2B receptors [10]): 78 µM
- Hill coefficient for spermine at NR1/NR2B (NR1/NR2B receptors [10]; oocytes, −20 mV): 1.05

Molecule: [H]/N=C(/N)N[C@H]1[C@H](O)[C@@H](O)[C@H](O[C@@H]2O[C@@H](C)[C@](O)(C=O)[C@H]2O[C@@H]2O[C@@H](CO)[C@H](O)[C@@H](O)[C@@H]2NC)[C@@H](N/C(N)=N\[H])[C@@H]1O [streptomycin]
- Effect of aminoglycoside on spermine binding to NR2A-R [6]: inhibited
- Effect of aminoglycoside on spermine binding to NR2B-R [1]: inhibited
- Effect of aminoglycoside on spermine binding to NR1-R [7]: inhibited

Molecule: kanamycin A
- Effect of aminoglycoside on spermine binding to NR2A-R [6]: inhibited
- Effect of aminoglycoside on spermine binding to NR2B-R [1]: inhibited
- Effect of aminoglycoside on spermine binding to NR1-R [7]: inhibited
